Values quoted from earlier work as cited in patent US5756528A, “Inhibitors of farnesyl-protein transferase” (Merck & Co., Inc., priority 1996, dated 1998).

Tested on: farnesyl-protein transferase
Details: via HMG-CoA reductase inhibition, background literature

| Compound | Indirect inhibition of farnesyl-protein transferase in vivo |
| --- | --- |
| CC[C@H](C)C(=O)O[C@H]1CCC=C2C=C[C@H](C)[C@H](CC[C@@H]3C[C@@H](O)CC(=O)O3)[C@H]21 [compactin] | Indirect inhibition of farnesyl-protein transferase in vivo has been demonstrated |
| CC[C@H](C)C(=O)O[C@H]1C[C@@H](C)C=C2C=C[C@H](C)[C@H](CC[C@@H]3C[C@@H](O)CC(=O)O3)[C@H]21 [lovastatin] | Indirect inhibition of farnesyl-protein transferase in vivo has been demonstrated |
